# Activity calls are given as the source filed them. The rule behind the calls is not given here.
# Columns and labels:
# [1] = target: Dual specificity protein kinase CLK1 (Homo sapiens) (UniProt P49759); assay: Binding affinity to wild-type human full length CLK1 (M1 to I484 residues) expressed in bacterial expression system assessed as residual binding level at 100 nM by Kinomescan method relative to control
# [2] = test system: Receptor-type tyrosine-protein kinase FLT3 (Homo sapiens), P36888 [UNDEFINED MUTATION]; assay: Binding affinity to human partial length FLT3 ITD mutant expressed in bacterial expression system assessed as residual binding level at 100 nM by Kinomescan method relative to control
# SR [3] = assay: Down regulation of PYK2 in human SR cells at 0.1 to 1000 nM after 16 hrs by Western blot analysis; assay type: functional, cell-based; settings: dose 0.1-1000 nM
# NCI-H2228 [4] = assay: Down regulation of RSK1 in human NCI-H2228 cells at 1 to 1000 nM after 16 hrs by Western blot analysis; assay type: functional, cell-based; settings: dose 1-1000 nM
# [5] = test system: Receptor-type tyrosine-protein kinase FLT3 (Homo sapiens), P36888 [UNDEFINED MUTATION]; assay: Binding affinity to human partial length FLT3 ITD/F691L double mutant expressed in bacterial expression system assessed as residual binding level at 100 nM by Kinomescan method relative to control
# [6] = Metabolic stability in human liver microsomes assessed as intrinsic clearance preincubated for 10 mins followed by NADPH regenerating system addition and measured after 10 mins by LC-MS/MS analysis; assay type: ADME, Microsome; settings: time 20 min, read-out: CLH
# [7] = test system: Epidermal growth factor receptor (Homo sapiens), P00533 [T790M]; assay: Binding affinity to human partial length EGFR T790M mutant (R669 to G1022 residues) expressed in mammalian expression system assessed as residual binding level at 100 nM by Kinomescan method relative to control
# [8] = test system: Epidermal growth factor receptor (Homo sapiens), P00533 [L858R,T790M]; assay: Induction of EGFR L858R/T790M mutant degradation in human […] at 100 nM by Western blot analysis; assay type: cell-based
# [9] = Metabolic stability in human liver microsomes assessed as half life preincubated for 10 mins followed by NADPH regenerating system addition and measured after 10 mins by LC-MS/MS analysis; assay type: ADME, Microsome
# Calu-1 [10] = assay: Inhibition of cell invasion in human Calu-1-GFP cells at 100 nM after 24 hrs by transwell invasion assay; assay type: functional, cell-based
# SR [11] = assay: Induction of G1 cell cycle arrest in human SR cells at 100 nM after 24 to 48 hrs; assay type: functional, cell-based; settings: time 24-48 hrs
# [12] = target: Signal transducer and activator of transcription 3 (Homo sapiens) (UniProt P40763); assay: Inhibition of STAT3 downstream signalling in human NCI-H2228 cells assessed as reduction in pSTAT3 level at 1 to 1000 nM by Western blot analysis; assay type: cell-based; settings: dose 1-1000 nM
# SR [13] = assay: Antiproliferative activity against human SR cells assessed as inhibition of cell growth incubated for 72 hrs by CCK8 assay; assay type: functional, cell-based
# [14] = target: Leucine-rich repeat serine/threonine-protein kinase 2 (Homo sapiens) (UniProt Q5S007); assay: Binding affinity to wild-type human partial length LRRK2 (H970 to E2527 residues) expressed in mammalian expression system assessed as residual binding level at 100 nM by Kinomescan method relative to control
# [15] = target: Focal adhesion kinase 1 (Homo sapiens) (UniProt Q05397); assay: Induction of FAK degradation in human Calu-1 cells at 1 nM after 16 hrs by Western blot analysis; assay type: cell-based
# [16] = test system: Leucine-rich repeat serine/threonine-protein kinase 2 (Homo sapiens), Q5S007 [G2019S]; assay: Binding affinity to human partial length LRRK2 G2019S mutant (H970 to E2527 residues) expressed in mammalian expression system assessed as residual binding level at 100 nM by Kinomescan method relative to control
# MDA-MB-231 [17] = assay: Down regulation of C-myc protein expression in human MDA-MB-231 cells at 1 to 500 nM after 48 hrs by Western blot analysis; assay type: functional, cell-based; settings: dose 1-500 nM
# [18] = target: Protein-tyrosine kinase 2-beta (Homo sapiens) (UniProt Q14289); assay: Binding affinity to wild-type human full length PYK2 (M1 to E967 residues) expressed in bacterial expression system assessed as residual binding level at 100 nM by Kinomescan method relative to control
# [19] = target: Focal adhesion kinase 1 (Homo sapiens) (UniProt Q05397); assay: Induction of FAK degradation in human A549 cells at 1 nM after 16 hrs by Western blot analysis; assay type: cell-based
# [20] = Metabolic stability in human liver microsomes preincubated for 10 mins followed by NADPH regenerating system addition and measured after 10 mins by LC-MS/MS analysis; assay type: ADME, Microsome; settings: time 20 min, read-out: Stability
# [21] = target: Serine/threonine-protein kinase 33 (Homo sapiens) (UniProt Q9BYT3); assay: Binding affinity to wild-type human full length STK33 (M1 to L514 residues) expressed in bacterial expression system assessed as residual binding level at 100 nM by Kinomescan method relative to control
# Calu-1 [22] = assay: Down regulation of C-myc protein expression in human Calu-1 cells at 1 to 500 nM after 48 hrs by Western blot analysis; assay type: functional, cell-based; settings: dose 1-500 nM
# A549 = assay: Down regulation of FAK in human A549 cells at 1 to 1000 nM after 16 hrs by Western blot analysis; assay type: functional, cell-based; settings: dose 1-1000 nM
# NCI-H1975 = assay: Antiproliferative activity against human H1975 cells overexpressing EGFR L858R/T790M mutant assessed as cell growth inhibition after 72 hrs; assay type: functional, cell-based; settings: NCI-H1975, 72 h
# [23] = target: Serine/threonine-protein kinase SBK1 (Homo sapiens) (UniProt Q52WX2); assay: Binding affinity to wild-type human partial length SBK1 (P23 to P348 residues) expressed in mammalian expression system assessed as residual binding level at 100 nM by Kinomescan method relative to control
# [24] = Half life in […] at 10 mg/kg, po or 2 mg/kg, iv measured upto 24 hrs; assay type: ADME, organism-based; settings: in vivo
# SR [25] = assay: Down regulation of FER in human SR cells at 0.1 to 1000 nM after 16 hrs by Western blot analysis; assay type: functional, cell-based; settings: dose 0.1-1000 nM
# SR [26] = assay: Antiproliferative activity against human SR cells assessed as inhibition of cell growth at 10 nM preincubated for 5 days followed by compound washout and measured on day 7 and 9 by CCK8 assay; assay type: functional, cell-based; settings: time 5.0 day
# MDA-MB-231 [27] = assay: Down regulation of cyclin D1 protein expression in human MDA-MB-231 cells at 1 to 500 nM after 48 hrs by Western blot analysis; assay type: functional, cell-based; settings: dose 1-500 nM
# NCI-H2228 [28] = assay: Down regulation of FAK in human NCI-H2228 cells at 1 to 1000 nM after 16 hrs by Western blot analysis; assay type: functional, cell-based; settings: dose 1-1000 nM
# EML4-ALK (Homo sapiens) = EML4-ALK (Homo sapiens) (UniProt Q9UM73+Q9HC35); assay: Induction of EML4-ALK degradation in human […] at 0.1 to 50 nM by Western blot analysis; assay type: cell-based; settings: dose 0.1-50 nM
# [29] = test system: Epidermal growth factor receptor (Homo sapiens), P00533 [L858R,T790M]; assay: Binding affinity to human partial length EGFR L858R/T790M double mutant (R669 to V1011 residues) expressed in mammalian expression system assessed as residual binding level at 100 nM by Kinomescan method relative to control
# [30] = target: Tyrosine-protein kinase JAK3 (Homo sapiens) (UniProt P52333); assay: Binding affinity to wild-type human partial length JAK3 JH1 catalytic domain (I781 to S1124 residues) expressed in mammalian expression system assessed as residual binding level at 100 nM by Kinomescan method relative to control
# Sequence of Receptor-type tyrosine-protein kinase FLT3 (Homo sapiens), P36888 [UNDEFINED MUTATION] (P36888 whole entry, looked up, stated change not applied): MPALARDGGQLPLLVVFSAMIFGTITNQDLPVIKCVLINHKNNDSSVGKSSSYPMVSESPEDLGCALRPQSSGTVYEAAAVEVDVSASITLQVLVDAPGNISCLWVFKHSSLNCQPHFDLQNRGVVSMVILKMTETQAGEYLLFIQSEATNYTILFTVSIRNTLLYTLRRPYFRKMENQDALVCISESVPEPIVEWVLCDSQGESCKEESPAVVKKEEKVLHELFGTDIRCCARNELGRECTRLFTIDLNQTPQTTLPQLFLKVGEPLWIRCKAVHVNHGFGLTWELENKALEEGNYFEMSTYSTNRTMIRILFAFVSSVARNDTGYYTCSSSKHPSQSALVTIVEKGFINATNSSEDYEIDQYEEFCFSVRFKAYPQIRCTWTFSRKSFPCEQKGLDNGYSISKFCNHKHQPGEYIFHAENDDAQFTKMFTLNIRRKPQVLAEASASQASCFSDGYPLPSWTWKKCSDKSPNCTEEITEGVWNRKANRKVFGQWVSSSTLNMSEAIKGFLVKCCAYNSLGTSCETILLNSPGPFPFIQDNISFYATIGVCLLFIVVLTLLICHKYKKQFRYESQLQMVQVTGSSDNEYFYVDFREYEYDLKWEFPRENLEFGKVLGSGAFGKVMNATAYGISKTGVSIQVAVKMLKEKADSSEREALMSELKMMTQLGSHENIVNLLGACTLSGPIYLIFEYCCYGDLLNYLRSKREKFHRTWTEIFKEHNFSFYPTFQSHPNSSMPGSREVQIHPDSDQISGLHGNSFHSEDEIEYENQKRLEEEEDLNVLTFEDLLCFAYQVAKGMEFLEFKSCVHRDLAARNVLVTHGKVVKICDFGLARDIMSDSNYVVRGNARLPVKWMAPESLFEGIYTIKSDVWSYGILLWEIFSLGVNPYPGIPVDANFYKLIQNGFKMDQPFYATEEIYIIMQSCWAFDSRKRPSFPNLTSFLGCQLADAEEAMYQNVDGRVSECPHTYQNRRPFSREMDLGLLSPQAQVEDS
# Sequence of Focal adhesion kinase 1 (Homo sapiens) (Q05397 2-1052 limits assumed): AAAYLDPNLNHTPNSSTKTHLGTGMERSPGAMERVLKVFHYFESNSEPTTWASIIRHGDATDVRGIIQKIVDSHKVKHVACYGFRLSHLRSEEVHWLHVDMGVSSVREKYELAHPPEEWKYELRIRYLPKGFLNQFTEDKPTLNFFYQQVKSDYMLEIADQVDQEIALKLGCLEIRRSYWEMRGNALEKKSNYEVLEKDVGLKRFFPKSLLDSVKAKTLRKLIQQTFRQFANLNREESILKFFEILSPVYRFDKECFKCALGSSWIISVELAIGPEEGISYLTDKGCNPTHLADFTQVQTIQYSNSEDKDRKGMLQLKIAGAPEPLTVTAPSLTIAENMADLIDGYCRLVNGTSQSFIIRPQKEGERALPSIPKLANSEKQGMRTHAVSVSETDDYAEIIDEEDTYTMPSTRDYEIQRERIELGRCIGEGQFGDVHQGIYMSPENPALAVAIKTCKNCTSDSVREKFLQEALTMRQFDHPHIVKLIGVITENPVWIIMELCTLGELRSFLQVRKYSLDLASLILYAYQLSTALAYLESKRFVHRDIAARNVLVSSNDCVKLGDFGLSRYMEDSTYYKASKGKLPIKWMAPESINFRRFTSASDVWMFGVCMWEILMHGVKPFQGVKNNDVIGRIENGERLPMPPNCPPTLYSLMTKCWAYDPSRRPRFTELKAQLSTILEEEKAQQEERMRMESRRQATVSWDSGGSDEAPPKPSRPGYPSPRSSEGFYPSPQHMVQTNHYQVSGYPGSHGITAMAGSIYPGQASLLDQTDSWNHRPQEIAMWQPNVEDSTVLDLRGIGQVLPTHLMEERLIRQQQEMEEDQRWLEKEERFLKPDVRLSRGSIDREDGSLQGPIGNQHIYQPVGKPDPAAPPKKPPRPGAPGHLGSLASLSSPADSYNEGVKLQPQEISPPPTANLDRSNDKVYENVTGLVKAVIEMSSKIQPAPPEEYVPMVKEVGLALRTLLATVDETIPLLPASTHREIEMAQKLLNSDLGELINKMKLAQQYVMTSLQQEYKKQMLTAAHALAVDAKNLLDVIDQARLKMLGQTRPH
# Sequence of EML4-ALK (Homo sapiens) (Q9HC35 whole entry partner, the tested form may be a part): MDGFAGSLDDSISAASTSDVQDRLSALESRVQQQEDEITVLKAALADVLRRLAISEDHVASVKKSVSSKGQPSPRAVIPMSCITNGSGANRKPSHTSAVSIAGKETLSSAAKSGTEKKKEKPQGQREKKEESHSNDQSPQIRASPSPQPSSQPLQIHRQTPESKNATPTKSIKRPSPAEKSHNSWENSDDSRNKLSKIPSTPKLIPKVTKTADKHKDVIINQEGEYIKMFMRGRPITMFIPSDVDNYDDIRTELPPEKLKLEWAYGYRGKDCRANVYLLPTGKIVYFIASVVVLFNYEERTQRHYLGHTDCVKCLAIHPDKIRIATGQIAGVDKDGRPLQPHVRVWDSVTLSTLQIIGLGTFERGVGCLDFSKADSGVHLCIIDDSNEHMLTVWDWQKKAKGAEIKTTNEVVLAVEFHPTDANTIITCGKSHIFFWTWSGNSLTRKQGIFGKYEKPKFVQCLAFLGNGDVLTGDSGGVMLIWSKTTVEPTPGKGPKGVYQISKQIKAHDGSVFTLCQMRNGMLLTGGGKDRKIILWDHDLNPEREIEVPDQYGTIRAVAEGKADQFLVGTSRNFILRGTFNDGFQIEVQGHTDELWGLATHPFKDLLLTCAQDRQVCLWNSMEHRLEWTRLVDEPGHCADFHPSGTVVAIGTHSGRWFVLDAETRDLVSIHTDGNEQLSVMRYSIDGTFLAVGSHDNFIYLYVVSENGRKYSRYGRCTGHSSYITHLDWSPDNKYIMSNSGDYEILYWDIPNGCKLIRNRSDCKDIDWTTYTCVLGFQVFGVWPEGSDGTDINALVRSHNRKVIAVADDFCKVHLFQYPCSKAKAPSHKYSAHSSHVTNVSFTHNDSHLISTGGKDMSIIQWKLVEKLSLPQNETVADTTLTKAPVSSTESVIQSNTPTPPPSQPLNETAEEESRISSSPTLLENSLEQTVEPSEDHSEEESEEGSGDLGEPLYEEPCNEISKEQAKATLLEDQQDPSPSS
# Sequence of EML4-ALK (Homo sapiens) (Q9UM73 19-1620 limits assumed): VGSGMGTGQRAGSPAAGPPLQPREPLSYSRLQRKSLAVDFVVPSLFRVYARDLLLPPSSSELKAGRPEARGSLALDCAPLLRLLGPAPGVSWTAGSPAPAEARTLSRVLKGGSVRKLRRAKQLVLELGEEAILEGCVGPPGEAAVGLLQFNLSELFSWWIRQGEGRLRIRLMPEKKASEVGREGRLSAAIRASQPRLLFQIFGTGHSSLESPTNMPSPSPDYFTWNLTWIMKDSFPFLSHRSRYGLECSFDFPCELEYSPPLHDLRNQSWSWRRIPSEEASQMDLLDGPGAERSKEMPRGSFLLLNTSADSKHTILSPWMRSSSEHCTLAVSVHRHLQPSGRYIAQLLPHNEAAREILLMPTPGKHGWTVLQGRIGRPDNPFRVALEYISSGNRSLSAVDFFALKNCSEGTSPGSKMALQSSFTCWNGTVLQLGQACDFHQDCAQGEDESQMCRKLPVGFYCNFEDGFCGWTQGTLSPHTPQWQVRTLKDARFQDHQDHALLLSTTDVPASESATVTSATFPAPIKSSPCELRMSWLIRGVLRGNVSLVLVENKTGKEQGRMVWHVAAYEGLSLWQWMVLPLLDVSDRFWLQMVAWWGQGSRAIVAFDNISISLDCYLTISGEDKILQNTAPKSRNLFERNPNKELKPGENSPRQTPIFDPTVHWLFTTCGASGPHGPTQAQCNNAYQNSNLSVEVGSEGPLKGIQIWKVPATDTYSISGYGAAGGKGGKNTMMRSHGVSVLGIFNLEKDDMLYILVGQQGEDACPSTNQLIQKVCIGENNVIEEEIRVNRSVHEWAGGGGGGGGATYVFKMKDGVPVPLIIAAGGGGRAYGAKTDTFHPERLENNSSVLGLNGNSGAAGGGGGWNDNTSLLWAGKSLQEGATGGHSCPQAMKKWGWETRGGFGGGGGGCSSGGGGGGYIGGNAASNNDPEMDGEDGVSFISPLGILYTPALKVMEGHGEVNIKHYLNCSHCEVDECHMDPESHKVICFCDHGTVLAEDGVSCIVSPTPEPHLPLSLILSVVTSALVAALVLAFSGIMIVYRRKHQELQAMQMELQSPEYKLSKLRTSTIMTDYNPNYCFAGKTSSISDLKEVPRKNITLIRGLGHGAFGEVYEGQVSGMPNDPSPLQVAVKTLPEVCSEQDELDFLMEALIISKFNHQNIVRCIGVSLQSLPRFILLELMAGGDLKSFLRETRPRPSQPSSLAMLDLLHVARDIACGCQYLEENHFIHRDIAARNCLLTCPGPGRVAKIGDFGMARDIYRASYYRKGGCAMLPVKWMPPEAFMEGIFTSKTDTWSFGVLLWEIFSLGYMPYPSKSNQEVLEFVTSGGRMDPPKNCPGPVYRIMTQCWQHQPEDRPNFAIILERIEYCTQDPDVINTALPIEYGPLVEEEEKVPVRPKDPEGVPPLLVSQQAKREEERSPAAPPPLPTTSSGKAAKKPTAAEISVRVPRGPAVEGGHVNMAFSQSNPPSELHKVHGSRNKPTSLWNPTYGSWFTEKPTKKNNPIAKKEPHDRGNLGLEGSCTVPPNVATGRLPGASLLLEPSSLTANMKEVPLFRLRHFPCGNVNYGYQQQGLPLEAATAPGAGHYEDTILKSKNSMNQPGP
# Sequence of Serine/threonine-protein kinase SBK1 (Homo sapiens) (Q52WX2 whole entry, the tested form may be a part): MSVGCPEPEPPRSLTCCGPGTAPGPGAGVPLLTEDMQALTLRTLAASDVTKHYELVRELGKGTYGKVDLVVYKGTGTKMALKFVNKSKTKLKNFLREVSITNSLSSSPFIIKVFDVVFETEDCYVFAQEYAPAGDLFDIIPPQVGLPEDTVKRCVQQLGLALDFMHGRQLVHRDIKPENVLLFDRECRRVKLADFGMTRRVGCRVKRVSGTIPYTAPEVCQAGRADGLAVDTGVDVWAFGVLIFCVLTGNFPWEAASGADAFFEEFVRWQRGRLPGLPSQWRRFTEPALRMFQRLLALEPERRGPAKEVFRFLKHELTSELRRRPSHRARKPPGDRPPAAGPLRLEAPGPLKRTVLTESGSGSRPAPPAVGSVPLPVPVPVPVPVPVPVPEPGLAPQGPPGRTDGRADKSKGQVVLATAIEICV
smiles,measurement,setting,value
COc1cc(N2CCC(N3CCN(C(=O)CNc4cccc5c4C(=O)N(C4CCC(=O)NC4=O)C5=O)CC3)CC2)ccc1Nc1ncc(Cl)c(Nc2ccccc2P(C)(C)=O)n1 (stereo not drawn),Activity,[1],3.8%
same,Activity,[2],3%
same,Activity,SR [3],Active
same,Activity,NCI-H2228 [4],Active
same,Activity,[5],0%
same,CLint scaled,[6],22.6 mL/min/kg
same,Activity,[7],5.7%
same,Activity,[8],Active
same,half-life,[9],279 min
same,inhibition,Calu-1 [10],Active
same,Activity,SR [11],Active
same,inhibition,[12],inactive
same,IC50,SR [13],2 nM
same,Activity,[14],0%
same,Activity,[15],Active
same,Activity,[16],0%
same,Activity,MDA-MB-231 [17],Active
same,Activity,[18],3.5%
same,Activity,[19],Active
same,microsomal CLint,[20],< 9.6 µL/min/mg
same,Activity,[21],2.3%
same,Activity,Calu-1 [22],Active
same,Activity,A549,Active
same,IC50,NCI-H1975,42 nM
same,Activity,[23],3.9%
same,half-life,[24],426 min
same,Activity,SR [25],Active
same,Activity,SR [26],Active
same,Activity,MDA-MB-231 [27],Active
same,Activity,NCI-H2228 [28],Active
same,Activity,EML4-ALK (Homo sapiens),Active
same,Activity,[29],3.5%
same,Activity,[30],1%
